Laboratory results reported in PubChem BioAssay (NCI).
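Each compound was tested at five concentrations against cells in 96-well plates for 48 hours. TGI denotes the concentration required for complete inhibition of growth.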

Tests used:
Assay in all cases: inhibition of tumour cell growth, NCI panel, 48 h
[1] = test system: SNB-19 CNS
[2] = test system: HCT-15 colon
[3] = test system: SW-620 colon
[4] = test system: SN12C renal
[5] = test system: RXF 393 renal
[6] = test system: IGROV1 ovarian
[7] = test system: SNB-78 CNS
[8] = test system: UO-31 renal
[9] = test system: A549 NSCLC
[10] = test system: OVCAR-4 ovarian
[11] = test system: KM20L2 colon
[12] = test system: ACHN renal
[13] = test system: NCI-H460 lung
[14] = test system: LXFL 529 NSCLC
[15] = test system: SK-MEL-5 melanoma
[16] = test system: M14 melanoma
[17] = test system: DMS 273 small cell lung
[18] = test system: SK-MEL-28 melanoma
[19] = test system: SF-539 CNS
[20] = test system: CCRF-CEM leukemia
[21] = test system: HCC-2998 colon
[22] = test system: NCI-H23 lung
[23] = test system: UACC-257 melanoma
[24] = test system: CAKI-1 renal
[25] = test system: DLD-1 colon
[26] = test system: UACC-62 melanoma
[27] = test system: OVCAR-8 ovarian
[28] = test system: HCT-116 colon
[29] = test system: SF-295 CNS
[30] = test system: SK-OV-3 ovarian
[31] = test system: MOLT-4 leukemia
[32] = test system: SNB-75 CNS
[33] = test system: 786-0 renal
[34] = test system: EKVX NSCLC
[35] = test system: NCI-H226 lung
[36] = test system: RPMI-8226 leukemia
[37] = test system: K-562 leukemia
[38] = test system: DMS 114 small cell lung
[39] = test system: HOP-62 NSCLC
[40] = test system: SF-268 CNS
[41] = test system: KM12 colon
[42] = test system: NCI-H522 lung
[43] = test system: HT29 colon
[44] = test system: OVCAR-5 ovarian
[45] = test system: M19-MEL melanoma
[46] = test system: HOP-92 NSCLC
[47] = test system: HL-60(TB) leukemia
[48] = test system: HOP-18 NSCLC
[49] = test system: TK-10 renal
[50] = test system: COLO 205 colon
[51] = test system: U251 CNS
[52] = test system: A498 renal
[53] = test system: MALME-3M melanoma
[54] = test system: SK-MEL-2 melanoma
[55] = test system: OVCAR-3 ovarian
[56] = test system: SR leukemia
[57] = test system: LOX IMVI melanoma

Measured: TGI

CCC1=C(C(C)=O)[C@@H]2CCCCC(C(=O)OC)[C@@H]2C1=O (some centres not stated)
not listed: [55] | [56] | [57]
> 100 µM: all other assays above

CC(=O)Nc1ccc(-c2nnc(SCC(=O)Nc3ccccc3)o2)cc1
not listed: [1] | [21] | [34] | [52]
> 100 µM: all other assays above
